± gives the expanded uncertainty stated by the source.
Tests used:
[1] = 298.15 K; 101.33 kPa; Liquid; Vibrating tube method
[2] = refractive index (Na D-line) (dimensionless); details: 298.15 K; 101.33 kPa; Liquid; Standard Abbe refractometry

SMILES | mass density [1] [kg/m3] | refractive index [2]
CCCCCCCCCCCCCC [tetradecane] | 759.38 ± 0.26 | 1.4269 ± 0.0008
CC1CCC(=O)O1 (centres undefined) [γ-valerolactone] | 1049.25 ± 0.3 | 1.4312 ± 0.0008

Source: the NIST ThermoML archive (doi:10.1016/j.fluid.2018.11.012)
